Source: patent EP0558104B1, “1,5-Benzodiazepine derivatives and their use in medicine” (GLAXO WELLCOME S.p.A., priority 1992, dated 1993)
Like-named read-outs stand apart in the source and are kept apart here.

Assays:
CCK-B receptor = CCK-B receptor (Cavia porcellus, UniProt H0VZC5); test: CCK receptor binding, guinea pig cortex assay; design: CCK-B receptor (guinea pig cortex assay); from tissue; host or cells: guinea pig cortex
Method: The greater affinity of the compounds of the invention for the CCK-B receptor over the CCK-A receptor has also been established using the CCK receptor binding assays described by G Dal Fornos et al., J. Pharmcol. Exp & Ther. 261, 1056-1063, 1992.
The binding affinity of the compounds of the invention for the CCK-A receptor (Pancreas Assay) and CCK-B receptor (guinea pig cortex assay) was determined using the procedure of G Dal Forno et al J. Pharmacol. Exp & Ther. 261 - 1056-1063. The pKi values determined with respresentative compounds of invention were as follows: […]

CCK-A receptors = target: T1, CCK-A receptors (Cavia porcellus, UniProt Q63931); test: CCK-A antagonist activity, guinea pig isolated ileum longitudinal muscle myenteric plexus preparation; format: cell-based
T1 construct: guinea pig isolated ileum longitudinal muscle myenteric plexus preparation; from tissue; host or cells: guinea pig isolated ileum longitudinal muscle-myenteric plexus
T1 sequence (Q63931 1-430): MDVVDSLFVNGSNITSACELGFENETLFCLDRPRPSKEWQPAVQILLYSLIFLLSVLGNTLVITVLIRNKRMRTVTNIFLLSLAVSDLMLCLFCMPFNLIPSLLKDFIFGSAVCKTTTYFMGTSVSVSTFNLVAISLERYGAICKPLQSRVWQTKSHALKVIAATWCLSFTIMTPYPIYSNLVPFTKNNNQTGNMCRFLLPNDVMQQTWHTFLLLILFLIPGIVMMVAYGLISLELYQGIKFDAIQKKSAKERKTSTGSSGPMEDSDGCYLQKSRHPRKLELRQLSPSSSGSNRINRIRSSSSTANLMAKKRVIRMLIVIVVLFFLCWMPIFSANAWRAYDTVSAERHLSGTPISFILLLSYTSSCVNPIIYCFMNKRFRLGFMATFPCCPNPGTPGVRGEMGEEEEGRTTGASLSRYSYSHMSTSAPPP
Method: The preparation and use of guinea-pig isolated ileum longitudinal muscle-myenteric plexus has been described by K-H Buchheit et al in Nauyn-Schmeideberg's Arch. Pharmacol, (1985), 329, p3641 and by V.L. Lucaites et al (1991) in J. Pharmacol. Exp. Ther., 256, 695-703.
The CCK-A antagonist and CCK-B antagonist activites of compounds of the invention were determined using the guinea pig isolated ileum longitudinal muscle myenteric plexus preparation. The compounds were tested using the procedure G Dal Forno et al J. Pharmacol. Exp & Ther. 261 - 1056-1063 1992 and the pKb value for each compound was determined.

rats = test: Tolerability after oral administration to rats; format: in vivo; settings: given orally to rats at doses at which the compound exhibits anxiolytic activity
Text: (§1) The compounds of the invention are essentially non-toxic and therapeutically useful doses.

rat = test: Anxiolytic activity in rats (rat social interaction model); format: in vivo
Text: (§2) For example in mice in the black-white box test and in the rat social interaction model.

mice [1] = test: Anxiolytic activity in mice (black-white box test); format: in vivo
Text: as §2

mice [2] = test: Tolerability after oral administration to mice; format: in vivo; settings: given orally to mice at doses at which the compound exhibits anxiolytic activity
Text: as §1

[3] = guinea pig isolated ileum longitudinal muscle myenteric plexus, inhibition of contractile activity of CCK-8, read-out: pKb CCK-A (converted)

Sequence of CCK-B receptor (H0VZC5 entry or part of it): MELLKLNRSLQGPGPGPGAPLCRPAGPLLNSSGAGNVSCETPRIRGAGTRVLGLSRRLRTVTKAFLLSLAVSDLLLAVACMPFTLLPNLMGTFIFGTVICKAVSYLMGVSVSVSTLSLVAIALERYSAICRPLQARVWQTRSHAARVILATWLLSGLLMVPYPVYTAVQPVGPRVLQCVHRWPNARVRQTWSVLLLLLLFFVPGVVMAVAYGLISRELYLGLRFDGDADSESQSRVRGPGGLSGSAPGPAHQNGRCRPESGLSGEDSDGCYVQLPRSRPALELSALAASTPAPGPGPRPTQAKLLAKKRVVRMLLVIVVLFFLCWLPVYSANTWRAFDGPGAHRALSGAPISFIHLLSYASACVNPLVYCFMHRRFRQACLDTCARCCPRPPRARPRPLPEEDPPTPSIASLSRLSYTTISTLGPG

`CCOC(=O)c1cccc(NC(=O)NC2C(=O)N(CC34CC5CC(CC(C5)C3)C4)c3ccccc3N(c3ccccc3)C2=O)c1` (centres unmarked) [Example 41, N-[1-(1-Adamantylmethyl)-2,4-dioxo-5-phenyl-2,3,4,5-tetrahydro-1H-1,5-benzodiazepin-3-yl]-N'-(3-ethoxycarbonylphenyl)urea] showed a Ki (CCK-B receptor) of 2.95 nM.
`O=C(Nc1cccc([N+](=O)[O-])c1)NC1C(=O)N(CC23CC4CC(CC(C4)C2)C3)c2ccccc2N(c2ccccc2)C1=O` (centres unmarked) [Example 39, N-[1-(1-Adamantylmethyl)-2,4-dioxo-5-phenyl-2,3,4,5-tetrahydro-1H-1,5-benzodiazepin-3-yl]-N'-(3-nitrophenyl)urea] showed a Ki (CCK-B receptor) of 1.91 nM.
With `O=C(Nc1ccccc1)NC1C(=O)N(CC2CC3C=CC2C3)c2ccccc2N(c2ccccc2)C1=O` (centres unmarked) [Example 31, N-[1-(Bicyclo [2.2.1]-5-heptene-2-ylmethyl)-2,4-dioxo-5-phenyl-2,3,4,5-tetrahydro-1H-1,5-benzodiazepin-3yl]-N'-phenylurea] the Ki (CCK-B receptor) was 1.51 nM.
With `O=C(Nc1ccccc1)NC1C(=O)N(CC23CC4CC(CC(C4)C2)C3)c2ccccc2N(c2ccccc2)C1=O` (centres unmarked) [Example 14, N-[1-(1-Adamantyl)methyl-2,4-dioxo-5-phenyl-2,3,4,5-tetrahydro-1H-1,5-benzodiazepin-3-yl]-N'-phenylurea] the Kb (CCK-A receptors) was 158 nM.
Compound `CN(C)c1ccc(NC(=O)NC2C(=O)N(CCC3CCCC3)c3ccccc3N(c3ccccc3F)C2=O)cc1` (centres unmarked) [Example 30, N-[1-(2-cyclopentyl-ethyl)-2,4-dioxo-5-(2-fluorophenyl)-2,3,4,5-tetrahydro-1H-1,5-benzodiazepin-3-yl]-N'-[4-(dimethylamino)phenyl]urea] has a Ki (CCK-B receptor) of 0.724 nM.
With `CC(C)CCN1C(=O)C(NC(=O)Nc2ccccc2)C(=O)N(c2ccccc2)c2cc(Cl)c(Cl)cc21` (centres unmarked) [Example 11, N-[7,8-dichloro-2,4-Dioxo-1-(3-methylbut-1-yl)-5-phenyl-2,3,4,5-tetrahydro-1H-1,5-benzodiazepin-3-yl]-N'-phenylurea] the Ki (CCK-B receptor) was 9.77 nM.
With `CC(C)(C)C(O)CN1C(=O)C(NC(=O)Nc2ccccc2)C(=O)N(c2ccccc2F)c2ccccc21` (centres unmarked) [Example 7A, N-[1-(3,3-Dimethyl-2-hydroxybut-1-yl)-2,4-dioxo-5-(2-fluorophenyl)-2,3,4,5-tetrahydro-1H-1,5-benzodiazepin-3-yl]-N'-phenylurea] the Ki (CCK-B receptor) was 1.95 nM.
Compound `CC(C)(C)CCN1C(=O)C(NC(=O)Nc2ccccc2)C(=O)N(c2ccccc2)c2ccccc21` (centres unmarked) [Example 16, N-[1-(3,3-Dimethylbutyl)-2,4-dioxo-5-phenyl-2,3,4,5-tetrahydro-1H-1,5-benzodiazepin-3-yl]-N'-phenylurea] has a Ki (CCK-B receptor) of 0.676 nM.
`CC(C)CCN1C(=O)C(NC(=O)Nc2ccccc2)C(=O)N(c2ccccc2)c2ccccc21` (centres unmarked) [Example 25, N-[2,4-Dioxo-5-phenyl-1-(3-methylbut-1-yl)-2,3,4,5-tetrahydro-1H-1,5-benzodiazepin-3-yl]-N'-phenylurea] showed a Kb (CCK-A receptors; [3]) greater than 1000 nM.
In the case of `O=C(Nc1ccccc1)NC1C(=O)N(CC23CC4CC(CC(C4)C2)C3)c2ccccc2N(c2ccccc2)C1=O` (single isomer, unassigned; (+)) [Example 45, (+)-N-[1-(Adamantanmethyl)-2,4-dioxo-5-phenyl-2,3,4,5-tetrahydro-1H-1,5benzodiazepin-3-yl]-N'-phenylurea], the untoward effects (rats) is reported as “no untoward effects”, the anxiolytic activity (rat) is reported as “exhibits anxiolytic activity” and the anxiolytic activity (mice [1]) is reported as “exhibits anxiolytic activity”. For the same compound, the untoward effects (mice [2]) was “no untoward effects” and the Kb (CCK-A receptors) was 1260 nM.
`CC(C)CCN1C(=O)C(NC(=O)Nc2cccc(N(C)C)c2)C(=O)N(c2ccccc2F)c2ccccc21` (centres unmarked) [Example 4, N-[2,4-dioxo-5-(2-fluorophenyl)-1-(3-methylbut-1-yl)-2,3,4,5-tetrahydro-1H-1,5-benzodiazepin-3-yl]-N'-(3-dimethylamino)phenylurea] was tested, and the Ki (CCK-B receptor) was 0.251 nM and the Kb (CCK-A receptors; [3]) was 3160 nM.
`CC(C)CCN1C(=O)C(NC(=O)Nc2ccccc2)C(=O)N(c2ccccc2)c2cc(Cl)ccc21` (centres unmarked) [Example 9, N-[7-Chloro-2,4-dioxo-1-(3-methylbut-1-yl)-5-phenyl-2,3,4,5-tetrahydro-1H-1,5-benzodiazepin-3-yl]-N'-phenylurea] was tested, and the Ki (CCK-B receptor) was 4.9 nM.
